Experimental findings from ChEMBL document CHEMBL2311455, “Combining QSAR classification models for predictive modeling of human monoamine oxidase inhibitors” (Eur J Med Chem, 2013) are described below.

The species named for test [1] is Homo sapiens. In words: Selectivity index, difference in pIC50 for human recombinant MAOB and pIC50 for human recombinant MAOA.
The target of test [2] is T1, Amine oxidase [flavin-containing] B (Homo sapiens, UniProt P27338).
T1 sequence (P27338 whole entry): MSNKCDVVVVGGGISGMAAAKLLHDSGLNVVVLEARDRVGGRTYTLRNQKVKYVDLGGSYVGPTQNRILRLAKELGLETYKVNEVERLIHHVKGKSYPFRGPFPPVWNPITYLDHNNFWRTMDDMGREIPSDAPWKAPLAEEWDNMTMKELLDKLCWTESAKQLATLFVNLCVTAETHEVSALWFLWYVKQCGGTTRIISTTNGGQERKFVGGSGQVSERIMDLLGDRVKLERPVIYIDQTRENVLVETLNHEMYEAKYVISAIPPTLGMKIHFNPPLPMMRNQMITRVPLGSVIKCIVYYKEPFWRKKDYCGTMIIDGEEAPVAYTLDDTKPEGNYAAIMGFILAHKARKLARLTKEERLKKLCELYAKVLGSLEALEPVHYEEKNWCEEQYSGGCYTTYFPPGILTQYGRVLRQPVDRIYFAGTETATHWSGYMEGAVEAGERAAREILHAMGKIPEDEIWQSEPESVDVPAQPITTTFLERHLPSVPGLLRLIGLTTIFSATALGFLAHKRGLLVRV
In words: Inhibition of human recombinant MAOB.

In test [3] the target is T2, Amine oxidase [flavin-containing] A (Homo sapiens, UniProt P21397).
T2 sequence (P21397 whole entry): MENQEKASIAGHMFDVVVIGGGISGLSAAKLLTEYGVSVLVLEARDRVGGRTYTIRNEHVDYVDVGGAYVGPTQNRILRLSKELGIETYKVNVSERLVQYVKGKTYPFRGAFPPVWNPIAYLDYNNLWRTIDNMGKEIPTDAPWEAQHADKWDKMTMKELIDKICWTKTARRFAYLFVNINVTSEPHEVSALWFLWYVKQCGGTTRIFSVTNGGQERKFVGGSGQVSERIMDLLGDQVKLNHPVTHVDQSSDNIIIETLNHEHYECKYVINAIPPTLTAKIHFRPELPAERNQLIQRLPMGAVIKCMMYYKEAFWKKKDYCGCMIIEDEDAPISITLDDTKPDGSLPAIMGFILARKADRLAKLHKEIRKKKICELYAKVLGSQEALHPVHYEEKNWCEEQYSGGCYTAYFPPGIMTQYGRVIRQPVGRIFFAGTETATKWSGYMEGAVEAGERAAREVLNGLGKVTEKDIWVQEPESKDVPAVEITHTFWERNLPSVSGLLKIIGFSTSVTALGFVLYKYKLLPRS
In words: Inhibition of human recombinant MAOA.

What is called IC50 is the point on the concentration scale where inhibition reaches its midpoint. With `CCCOC(=O)c1coc2ccccc2c1=O`, the pSI in test [1] is over 1.25. Besides, the IC50 in test [2] is 5.62 µM; in test [3], over 100 µM.
Consider `CCOC(=O)c1cc(=O)c2ccccc2o1`, for which the pSI in test [1] was 0. Further, the IC50 in test [2] and in test [3] was over 100 µM throughout.
For `CCOC(=O)c1cc(=O)c2cc(Cl)ccc2o1`, the pSI in test [1] was over 0.41. For the same compound, the IC50 in test [2] is 38.9 µM; in test [3] it was over 100 µM.
In the same order, the values of `O=C(O)c1cc(=O)c2cc(Cl)ccc2o1` are under -1, over 1000 µM and over 100 µM.
For `O=C(Nc1ccc(O)c(O)c1)c1cc(=O)c2ccccc2o1`, the pSI in test [1] was -1.15.
With `O=c1c(CO)coc2ccccc12`, the pSI in test [1] was over 0.42. The IC50 in test [2] was 38 µM; in test [3], over 100 µM.
In the case of `O=c1cc(CO)oc2ccccc12`, the pSI in test [1] stood at 0. Also, the IC50 in test [2] and in test [3] was over 100 µM each time.
In the case of `CN(C(=O)c1cc(=O)c2ccccc2o1)c1ccccc1`, the pSI in test [1] stood at 0. Moreover, the IC50 in test [2] and in test [3] was over 100 µM in each case.
Consider `O=C(O)c1coc2ccc(Cl)cc2c1=O`, for which the pSI in test [1] is under -1. The IC50 in test [2] is over 1000 µM; in test [3], over 100 µM.
In the same order, the values of `CCOC(=O)c1coc2ccccc2c1=O` are over 1.72, 1.91 µM and over 100 µM.
`CCCOC(=O)c1cc(=O)c2ccccc2o1`: in test [1], the pSI was over 0.45. The IC50 was 35.5 µM in test [2] and over 100 µM in test [3].
